US20170296459A1, “METHOD OF IMPROVING THE APPEARANCE OF PERIORBITAL DYSCHROMIA” (The Procter & Gamble Company, priority 2016, published 2017)

System: B16-F1 mouse melanoma cell line
Assay: B16 melanin synthesis inhibition assay
Assay type: cell-based
Conditions: B16-F1 cells, OD at 410 nm
Protocol: In this example, a commercially available B16-F1 mouse melanoma cell line from American Tissue Culture Collection, Virginia, USA was employed in a conventional melanin synthesis inhibition assay. The cell culture medium used in the assay is 500 mL of Dulbecco's Modified Eagle's Medium (DMEM), 50 mL Fetal Bovine Serum (FBS), and 5 mL of penicillin-streptomycin liquid. B16-F1 cells that are cultured in this medium and grown to greater than 90% confluency will synthesize melanin. While not intending to be bound by any theory, it is hypothesized that the melanin synthesis is stimulated by the culture medium and/or stress induced by growth to a high confluency. […] Equipment used in the assay include a CO2 incubator, such as a Forma Series Model 3110 by Therma Scientific, Massachusetts, USA; a hemocytometer, such as a Bright Line model by Hauser Scientific, Pennsylvania, USA; and a UV-Visible Spectrum Plate Reader, such as a SpectraMax250 from Molecular Devices, California, USA. […] Day 3: The cells from the T-150 flask are trypsinized, and the concentration of cells is determined using the hemacytometer. […] Read the 96 well plate using the UV-Vis Plate Reader at 410 nm to optically measure the amount of melanin produced between wells that are treated with the fava bean extract and control wells that are not. […] The concentration of test agent needed to provide the IC 50 is recorded.

Concentration Needed for IC 50 [v/v] | Compound
0.008 | Oc1ccc(OC2CCCCO2)cc1 (centres unmarked) [Deoxyarbutin]
0.01 | O=c1cc(CO)occ1O [Kojic Acid]
